Reference: patent publication US20210276978A1, “INHIBITORS OF HISTONE DEACETYLASE” (Alkermes, Inc., priority 2018, published 2021)

Tests used:
Full length Human HDAC1 = target: T1, Full length Human HDAC1 (Homo sapiens, UniProt Q13547); assay: HDAC1 enzymatic assay (deacetylation of FAM-labeled peptide substrate, microfluidic electrophoresis); type: biochemical; conditions: 1 uM substrate peptide
T1 construct: Full length Human HDAC1 with; His (C); FLAG (C); host or cells: baculovirus expression system
Description: (§1) HDAC2 and HDAC1 Enzymatic Assay (HDAC2 and HDAC1 IC50 Data)
(§2) The following describes an assay protocol for measuring the deacetylation of a peptide substrate by HDAC2 or HDAC1.
(§3) HDAC protein composition and respective substrate peptides are summarized below.
(§4) HDAC reactions are assembled in 384 well plates (Greiner) in a total volume of 20 µL as following:
(§5) HDAC proteins are pre-diluted in the assay buffer comprising: 100 mM HEPES, pH 7.5, 0.1% BSA, 0.01% Triton X-100, 25 mM KCl and dispensed into 384 well plate (10 uL per well).
(§6) Test compounds are serially pre-diluted in DMSO and added to the protein samples by acoustic dispensing (Labcyte Echo). Concentration of DMSO is equalized to 1% in all samples.
(§7) Control samples (0%-inhibition in the absence of inhibitor, DMSO only) and 100%-inhibition (in the absence of enzyme) are assembled in replicates of four and used to calculate the %-inhibition in the presence of compounds.
(§8) At this step compounds can be pre-incubated with enzyme if desired.
(§9) The reactions are initiated by addition of 10 uL of the FAM-labeled substrate peptide pre-diluted in the same assay buffer. Final concentration of substrate peptide is 1 uM (HDAC1-2). The reactions are allowed to proceed at room temperature. Following incubation, the reactions are quenched by addition of 50 µL of termination buffer (100 mM HEPES, pH7.5, 0.01% Triton X-100, 0.1% SDS). Terminated plates are analyzed on a microfluidic electrophoresis instrument (Caliper LabChip® 3000, Caliper Life Sciences/Perkin Elmer) which enables electrophoretic separation of de-acetylated product from acetylated substrate. A change in the relative intensity of the peptide substrate and product is the parameter measured. Activity in each test sample is determined as the product to sum ratio (PSR): P/(S+P), where P is the peak height of the product, and S is the peak height of the substrate. Percent inhibition (Pinh) is determined using the following equation: Pinh=(PSR0% inh−PSRcompound)/(PSR0% inh−PSR100% inh)*100, in which: PSRcompound is the product/sum ratio in the presence of compound, PSR0% inh is the product/sum ratio in the absence of compound and the PSR100% inh is the product/sum ratio in the absence of the enzyme. To determine IC50 of compounds (50%-inhibition) the %-inh data (Pinh versus compound concentration) are fit by a 4 parameter sigmoid dose-response model using XLfit software (IDBS).
(§10) In the table, “A” indicates a IC50 value of less than 0.5 “B” a IC50 value from 0.5 μM to 1.0 μM; “C” a IC50 value of greater than 1.0 μM and less than or equal to 2.0 μM; and “D” indicates an IC50 value of greater than 2.0 NT=Not Tested.

Full length Human HDAC2 = target: T2, Full length Human HDAC2 (Homo sapiens, UniProt Q92769); assay: HDAC2 enzymatic assay (deacetylation of FAM-labeled peptide substrate, microfluidic electrophoresis); type: biochemical; conditions: 1 uM substrate peptide
T2 construct: Full length Human HDAC2 with; FLAG (C); host or cells: baculovirus expression system
Description: as §1, §2, §3, §4, §5, §6, §7, §8, §9, §10

HDAC2 = target: T3, HDAC2 (Homo sapiens, UniProt Q92769); assay: HDAC2 enzymatic inhibition assay in SH-SY5Y cell lysate with an exogenous substrate (HDAC-Glo 2); type: cell-based; conditions: for IC50: SH-SY5Y cells
T3 construct: host or cells: SH-SY5Y cells
Description: HDAC2 Enzymatic Inhibition Assay in SH-SY5Y Cell Lysate with an Exogenous Substrate
SH-SY5Y cells (Sigma) were cultured in Eagle's Modified Essential Medium supplemented with 10% fetal bovine serum and pen/strep. Twenty-four hours prior to compound dosing 20 uL of cells were plated in white 384 well plates at a density of 1,500 cells/well. Compounds were serially diluted in neat DMSO and then diluted 1:100 v/v into media without FBS and mixed. Media was removed from the plated cells and the diluted compounds in serum free media (1% v/v final DMSO) were added and incubated at 37.0 for five hours. Ten uL of HDAC-Glo 2 reagent with 0.1% Triton X-100 was then added, the plate was mixed and allowed to develop at room temperature for 100 minutes. Plates were then read with a Spectramax LMax luminometer employing a 0.4 s integration time. Dose response curves were constructed with normalized data where CI-994 at 100 uM was defined as 100% inhibition and DMSO alone as 0% inhibition.
In the table, “A” indicates a IC50 value of less than 0.5 μM; “B” a IC50 value from 0.5 μM to 1.0 μM; “C” a IC50 value of greater than 1.0 μM and less than or equal to 2.0 μM; and “D” indicates an IC50 value of greater than 2.0 μM. NT=Not Tested.

[1] = five hours incubation, HDAC-Glo 2 reagent, class symbols
[2] = HDAC-Glo 2, numeric values, Table 4

T1 sequence (Q13547 whole entry): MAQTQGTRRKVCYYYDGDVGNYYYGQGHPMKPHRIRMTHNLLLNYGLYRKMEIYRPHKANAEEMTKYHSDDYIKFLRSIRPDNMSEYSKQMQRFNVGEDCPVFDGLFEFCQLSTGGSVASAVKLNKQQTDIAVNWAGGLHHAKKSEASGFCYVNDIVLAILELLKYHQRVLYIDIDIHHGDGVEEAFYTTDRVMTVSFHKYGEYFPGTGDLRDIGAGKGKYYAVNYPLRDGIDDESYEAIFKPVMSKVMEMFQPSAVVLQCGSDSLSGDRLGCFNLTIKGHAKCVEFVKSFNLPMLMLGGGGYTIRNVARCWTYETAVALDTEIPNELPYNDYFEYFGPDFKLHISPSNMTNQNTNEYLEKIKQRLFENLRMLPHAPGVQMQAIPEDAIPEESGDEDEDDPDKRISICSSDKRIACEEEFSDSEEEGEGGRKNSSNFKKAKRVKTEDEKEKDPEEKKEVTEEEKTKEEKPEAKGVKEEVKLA
T3 sequence (Q92769 whole entry): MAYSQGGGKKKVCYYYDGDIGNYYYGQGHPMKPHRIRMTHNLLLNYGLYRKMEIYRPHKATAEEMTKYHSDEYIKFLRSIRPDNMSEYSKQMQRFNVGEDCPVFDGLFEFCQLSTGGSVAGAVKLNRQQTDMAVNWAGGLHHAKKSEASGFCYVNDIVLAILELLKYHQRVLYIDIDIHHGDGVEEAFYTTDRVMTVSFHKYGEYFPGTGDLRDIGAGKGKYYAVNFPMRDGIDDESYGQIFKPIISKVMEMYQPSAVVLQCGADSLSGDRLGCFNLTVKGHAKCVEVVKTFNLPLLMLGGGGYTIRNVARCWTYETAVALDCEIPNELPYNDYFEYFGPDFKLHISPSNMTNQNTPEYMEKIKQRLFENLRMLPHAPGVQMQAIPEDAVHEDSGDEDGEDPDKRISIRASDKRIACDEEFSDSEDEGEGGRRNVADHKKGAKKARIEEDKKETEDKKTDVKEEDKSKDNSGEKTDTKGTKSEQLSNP
T2 sequence (Q92769 whole entry): as above

Structure (SMILES)	IC50 (Full length Human HDAC1) [nM]	IC50 (Full length Human HDAC2) [nM]	IC50 (HDAC2; [1]) [nM]	potency compared with Comparators A-C (HDAC2; HDAC2 SH-SY5Y cell lysate assay)	IC50 (HDAC2; [2]) [nM]
Nc1ccc(-c2ccc(F)cc2F)nc1NC(=O)N1CCC(c2ncc(F)cn2)C1 (single isomer, unassigned) [Compound 14E2]	500 to 1000	> 2000	> 2000		
Nc1ccc(-c2ccc(F)cc2)nc1NC(=O)N1CCC(c2ncccn2)C1 (stereo not drawn) [Compound 19]	< 500	< 500	< 500	greater potency	421
Nc1ccc(-c2ccc(F)cc2F)nc1NC(=O)N1CCC(Cc2cccnn2)C1 (stereo not drawn) [Compound 26]	1000 to 2000	1000 to 2000	500 to 1000		535
Nc1ccc(-c2ccc(F)cc2)nc1NC(=O)N1CCC(F)(c2ncccn2)C1 (single isomer, unassigned) [Compound 55]	< 500	< 500	500 to 1000		
Cc1cncc(C2CCN(C(=O)Nc3nc(-c4ccc(F)cc4F)ccc3N)C2)n1 (stereo not drawn) [Compound 17]			1000 to 2000		
Cc1cc(C)nc(C2CCN(C(=O)Nc3nc(-c4ccc(F)cc4F)ccc3N)C2)n1 (stereo not drawn) [Compound 16]			> 2000		
Cn1ccnc1CC1CCN(C(=O)Nc2nc(-c3ccc(F)cc3F)ccc2N)C1 (stereo not drawn) [Compound 36]	< 500	500 to 1000	500 to 1000		
Cc1cnc(C2CCN(C(=O)Nc3nc(-c4ccc(F)cc4)ccc3N)C2)o1 (stereo not drawn) [Compound 46]	500 to 1000	1000 to 2000	> 2000		
COCC1CCN(C(=O)Nc2nc(-c3ccc(F)cc3)ccc2N)C1 (stereo not drawn) [Comparator E, reference compound]					> 100000
Cc1cnc(C2CCN(C(=O)Nc3nc(-c4ccc(F)cc4F)ccc3N)C2)cn1 (stereo not drawn) [Compound 18]	500 to 1000	500 to 1000	500 to 1000		550
Nc1ccc(-c2ccc(F)cc2)nc1NC(=O)N1CCC(F)(c2ncccn2)C1 (single isomer, unassigned) [Compound 54]	500 to 1000	500 to 1000	1000 to 2000		
Nc1ccc(-c2ccc(F)cc2F)nc1NC(=O)N1CCC(c2cccnn2)C1 (stereo not drawn) [Compound 9]	500 to 1000	1000 to 2000	1000 to 2000		
COCc1cccc(C2CCN(C(=O)Nc3nc(-c4ccc(F)cc4F)ccc3N)C2)n1 (stereo not drawn) [Compound 12]			> 2000		
Nc1ccc(-c2ccc(F)cc2F)nc1NC(=O)N1CCC(F)(c2ncccn2)C1 (stereo not drawn) [Compound 29]	< 500	500 to 1000	500 to 1000		768
Cc1ccnc(C2CCN(C(=O)Nc3nc(-c4ccc(F)cc4)ccc3N)C2)n1 (single isomer, unassigned) [Compound 50]	1000	1000 to 2000	> 2000		
Cc1ccnc(C2CCN(C(=O)Nc3nc(-c4ccc(F)cc4)ccc3N)C2)n1 (single isomer, unassigned) [Compound 51]	< 500	500 to 1000	1000 to 2000		
Nc1ccc(-c2ccc(F)cc2F)nc1NC(=O)N1CCC(c2ncc(F)cn2)C1 (stereo not drawn) [Compound 14]	500 to 1000	500 to 1000	1000 to 2000		
Nc1ccc(-c2ccc(Cl)s2)nc1NC(=O)N1CCC(c2ncccn2)C1 (stereo not drawn) [Compound 42]			> 2000		
Nc1ccc(-c2ccc(F)cc2)nc1NC(=O)N1CCC(c2ncc(F)cn2)C1 (single isomer, unassigned) [Compound 20E2]	< 500	< 500	500 to 1000		
Cc1cnc(C2CCN(C(=O)Nc3nc(-c4ccc(F)cc4F)ccc3N)C2)s1 (stereo not drawn) [Compound 30]			> 2000		

Structure (SMILES)	IC50 (Full length Human HDAC1) [nM]	IC50 (Full length Human HDAC2) [nM]	IC50 (HDAC2; [1]) [nM]	potency compared with Comparators A-C (HDAC2; HDAC2 SH-SY5Y cell lysate assay)	IC50 (HDAC2; [2]) [nM]
Nc1ccc(-c2ccc(F)cc2F)nc1NC(=O)N1CCC(Cc2cccnc2)C1 (stereo not drawn) [Compound 31]			> 2000		
Cc1ccnc(CC2CCN(C(=O)Nc3nc(-c4ccc(F)cc4F)ccc3N)C2)n1 (stereo not drawn) [Compound 27]			1000 to 2000		
Nc1ccc(-c2ccc(F)cc2F)nc1NC(=O)N1CCC(Oc2cccnn2)C1 (stereo not drawn) [Compound 22]			> 2000		
Nc1ccc(-c2ccc(F)cc2F)nc1NC(=O)N1CCC(c2cnc(C(F)F)cn2)C1 (stereo not drawn) [Compound 37]			> 2000		
Nc1ccc(-c2ccc(F)cc2)nc1NC(=O)N1CCC(C(F)(F)F)C1 (stereo not drawn) [Comparator C, reference compound]					6360
Cc1ccc(CC2CCN(C(=O)Nc3nc(-c4ccc(F)cc4F)ccc3N)C2)nn1 (stereo not drawn) [Compound 28]			1000 to 2000		
Nc1ccc(-c2ccc(F)cc2F)nc1NC(=O)N1CCC(c2ncccn2)C1 (single isomer, unassigned) [Compound 8E2]	1000 to 2000	1000 to 2000			
Nc1ccc(-c2ccc(F)cc2F)nc1NC(=O)N1CCC(Cn2ccnc2)C1 (stereo not drawn) [Compound 34]			> 2000		
Cc1cnc(CC2CCN(C(=O)Nc3nc(-c4ccc(F)cc4F)ccc3N)C2)o1 (stereo not drawn) [Compound 47]			> 2000		
Nc1ccc(-c2ccc(F)cc2)nc1NC(=O)N1CCC(F)(F)C1 [Comparator B, reference compound]					14000
Cc1nccc(C2CCN(C(=O)Nc3nc(-c4ccc(F)cc4F)ccc3N)C2)n1 (stereo not drawn) [Compound 15]			> 2000		
Cc1cc(C2CCN(C(=O)Nc3nc(-c4ccc(F)cc4F)ccc3N)C2)nc(C)n1 (stereo not drawn) [Compound 13]			> 2000		
Nc1ccc(-c2ccc(F)cc2F)nc1NC(=O)N1CC[C@@H](Oc2cccnc2)C1 [Compound 5]			> 2000		
Nc1ccc(-c2ccc(F)cc2F)nc1NC(=O)N1CCC(Cn2cccn2)C1 (stereo not drawn) [Compound 35]			> 2000		
Nc1ccc(-c2ccc(F)cc2F)nc1NC(=O)N1CC[C@H](Oc2cccnc2)C1 [Compound 6]			> 2000		
Cc1ccc(C2CCN(C(=O)Nc3nc(-c4ccc(F)cc4F)ccc3N)C2)cn1 (stereo not drawn) [Compound 11]			> 2000		
Nc1ccc(-c2ccc(F)cc2F)nc1NC(=O)N1CCC(c2ncccn2)C1 (single isomer, unassigned) [Compound 8E1]	< 500	< 500			
Cc1cnc(C2CCN(C(=O)Nc3nc(-c4ccc(F)cc4F)ccc3N)C2)nc1 (stereo not drawn) [Compound 33]			> 2000		
Nc1ccc(-c2ccc(F)cc2)nc1NC(=O)N1CCCC1 [Comparator A, reference compound]					2640
Cc1nnc(C2CCN(C(=O)Nc3nc(-c4ccc(F)cc4F)ccc3N)C2)s1 (stereo not drawn) [Compound 32]			1000 to 2000		
